{"source": "patent US6930118B2", "about": "“3-Oxadiazol-5-yl-1-aminoalkyl-1h-indole derivatives” (Amrad Operations Pty. Ltd., priority 2001, dated 2005)", "key": {"CB1 receptor": {"biological_target": "T1, CB1 receptor (Rattus norvegicus, UniProt P20272)", "T1 construct": "the cerebellum was dissected away from the rest of the brain, weighed and homogenised; from tissue; host or cells: Sprague Dawley rat cerebellum membranes", "T1 sequence (P20272 whole entry)": "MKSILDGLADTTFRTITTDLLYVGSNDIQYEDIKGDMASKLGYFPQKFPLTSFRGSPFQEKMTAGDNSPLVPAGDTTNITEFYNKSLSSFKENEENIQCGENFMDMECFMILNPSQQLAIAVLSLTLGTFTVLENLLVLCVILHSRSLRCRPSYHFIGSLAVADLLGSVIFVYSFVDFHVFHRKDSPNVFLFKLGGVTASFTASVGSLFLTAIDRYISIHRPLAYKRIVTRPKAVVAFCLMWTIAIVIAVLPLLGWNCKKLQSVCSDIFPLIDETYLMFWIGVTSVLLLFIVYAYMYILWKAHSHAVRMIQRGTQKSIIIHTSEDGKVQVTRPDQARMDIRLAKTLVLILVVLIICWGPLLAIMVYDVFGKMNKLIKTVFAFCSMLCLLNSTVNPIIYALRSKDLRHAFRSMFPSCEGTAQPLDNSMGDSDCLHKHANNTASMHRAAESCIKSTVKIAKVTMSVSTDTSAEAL", "assay": "Radioligand binding assay, rat cerebellum membranes", "procedure": "The affinity of compounds at cannabinoid receptors is routinely assessed using ligand binding assays known to those skilled in the art. Radioligand binding assays were conducted using rat cerebellum or rat spleen. The cerebellum of the rat is known to express predominantly, if not exclusively, the CB1 receptor subtype (20,21). Thus, binding constants obtained from these studies are characterised by a single affinity value, as only one receptor type is labelled. […] In contrast, biphasic binding curves in the spleen characterised by two affinity constants represent the profile of compounds showing selectivity for one receptor subtype over another. In order to determine the order of selectivity, the high and low affinity values obtained for these compounds in the spleen binding assays were compared to the single affinity estimates obtained for the cerebellum (CB1) assays.\nSprague Dawley rats of either sex (200-300 g) were killed by gassing with 80% CO2 in O2 and decapitation, and the entire brain excised rapidly and placed in ice-cold Tris-HCl buffer (Tris 50 mM, MgCl2 3 mM, EGTA 0.2 mM, pH to 7.4 with HCl). On ice, the cerebellum was dissected away from the rest of the brain, weighed and homogenised (PT-DA 1205/2EC Polytron Aggregate; Kinematica, Luzernerstrasse Switzland) in 10 volumes of ice-cold Tris-HCl buffer. The homogenate was then made up to 20 volumes and centrifuged (Model J2-M1, Beckman, Fullerton, Calif., U.S.A.) at […] for 15 min at 4° C.). Subsequently, the supernatant was discarded, the pellet resuspended in 20 volumes of buffer and centrifuged as before. The resulting pellet was then resuspended in 20 volumes of buffer and assayed for protein content using the method of Bradford (Bradford, 1976) in a Novaspec II spectrophotometer (Pharmacia Biotech; with bovine serum albumin (BSA; Hömosafe BSA, c/o ‘ScimaR’ Templestowe, Australia) as the standard. The homogenate was then recentrifuged and the final pellet resuspended in Tris-HCl buffer at a protein concentration of 5 mg/ml and stored in 500 μl aliquots at −80° C. until used in the binding assay.\nLigand binding assays were performed in polypropylene tubes in a total volume of 1 ml containing Tris-HCl buffer, a final concentration of 1 mg/ml BSA, and varying concentrations of drugs. Tubes contained 30 μg of membrane protein and incubation was started by the addition of 100 μl of either 0.5 nM [^3H]SR141716A or 0.2 nM [^3H]WIN 55,212-2. Experiments were carried out in triplicate at 30° C. for 90 min with non-specific binding being defined as radioligand binding in the presence of 1 μM unlabelled WIN 55,212-2. Incubations were terminated by rapid filtration with a M-24 Cell Harvester (Brandel; Gaithersburg, Md., U.S.A.) using ice-cold Tris-HCl buffer containing 0.5 mg/ml BSA. Filters (Wattman GF/B) were soaked for 2 h prior to filtering in a solution of Tris-HCl buffer containing 3 mg/ml BSA and 0.5% w/w polyethyleneimine (PEI). Filters were left to dry thoroughly before placement into scintillation vials with 5 ml of scintillation cocktail (Ultima Gold LSC-cocktail; Packard Bioscience, Meriden, Conn., U.S.A.) being added. Vials were left to stand overnight before the radioactivity was determined using a Model 1409 DSA Liquid Scintillation counter (EG&E Wallac, Gaithersburg, Md., U.S.A.).\nThe resulting radioligand binding curves were analyzed by nonlinear regression using the program PRISM 3.0 (GraphPad Software, San Diego, Calif.) in order to derive ligand affinity estimates for the cannabinoid receptor(s)."}, "Sprague-Dawley rats": {"system": "Sprague-Dawley rats", "assay": "Antinociceptive testing (tail flick / plantar test) after intrathecal or intravenous administration", "type": "in vivo", "settings": "rat", "procedure": "The following sequence protocol was used for the acute intrathecal administration to Sprague-Dawley rats. Each rat only underwent one cycle of the sequence protocol:\nIntrathecal catheter placement was carried out as first described by Yaksh and Rudy (1976) The general thrust of the catheter placement involves the PE-10 catheter inserted into the subarachnoid space via the antlanto-occipital membrane (as the entry point) and threaded down to the lumber expansion of the spinal cord (spinal cord level L5/L6). The catheter tip is then exteriorised over the forehead. All animals are, assessed for normal motor function and behaviour post-surgery. […]\nDrugs were administered in a 0.1 ml volume followed by 0.1 ml saline (0.9% sodium chloride solution; Baxter, Toongabbie, N.S.W., Australia) flush. Tail flick nociception was measured at 15, 30, and in the case of 0.1 mg/kg CP 55,940, 45 min after intravenous administration.\nThe antinociception tests were all conducted using the Plantar Test Instrument (Ugo Basile, Varese, Italy) which comprises a movable infra-red (IR) heat source, a glass pane onto which the 3-compartment rat enclosure is placed and a controller. […] The withdrawal latency is measured by the time difference between the activation of the IR heat source and physical withdrawal of the paw or tail from the stimulus. […]"}}, "data": [{"smiles": "c1ccc(Cc2noc(-c3cn(CCN4CCCC4)c4ccccc34)n2)cc1", "note": "[Compound 1, 3-(3-Benzyl-[1,2,4]-oxadiazol-5-yl)-1-[2-(pyrrolidin-1-yl)ethyl]-1H-indole]", "values": [{"measurement": "IC50", "setting": "CB1 receptor", "result": 50, "unit": "nM"}, {"measurement": "antinociceptive effect", "setting": "Sprague-Dawley rats; i.t. route", "result": "provided an antinociceptive effect"}, {"measurement": "antinociceptive effect", "setting": "Sprague-Dawley rats; i.v. route", "result": "provided an antinociceptive effect"}]}]}
